US11254663B2 (BRISTOL-MYERS SQUIBB COMPANY, priority 2019, dated 2022)

These compounds were tested against FXR (Homo sapiens (Human), UniProt Q96RI1) (assay: transient human FXR/Gal4-luciferase reporter assay). Conditions: not given.
Chain of FXR (Q96RI1 262-486): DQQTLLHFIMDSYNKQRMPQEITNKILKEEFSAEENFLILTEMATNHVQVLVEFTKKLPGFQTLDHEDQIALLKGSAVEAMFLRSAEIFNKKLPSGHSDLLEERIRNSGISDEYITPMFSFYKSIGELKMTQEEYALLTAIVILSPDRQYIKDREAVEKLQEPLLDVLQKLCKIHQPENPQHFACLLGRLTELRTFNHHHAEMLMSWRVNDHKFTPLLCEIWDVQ
Format: cell-based
Outline: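 HEK293 cells stably carrying a 5×Gal4 response element–firefly luciferase reporter were transiently transfected overnight with a Gal4 DBD–human FXR LBD fusion plasmid. Compound was added in DMSO and cells were incubated overnight at 37 °C, 5% CO2. Activity was read as Steady-Glo luminescence.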
Work on `O=C(N(CC12CCC(c3noc(C4(C(F)(F)F)CC4)n3)(CC1)CC2)c1cccc(-c2ccc(OC(F)F)cc2)c1)C12CC(F)(C1)C2` [Example 522, N-(4′-(difluoromethoxy)-[1,1′-biphenyl]-3-yl)-3-fluoro-N-((4-(5-(1-(trifluoromethyl)cyclopropyl)-1,2,4-oxadiazol-3-yl)bicyclo[2.2.2]octan-1-yl)methyl)bicyclo[1.1.1]pentane-1-carboxamide] yielded an EC50 of 69 nM. With `CCOc1ccc(-c2cncc(N(CC34CCC(c5noc(C(C)(C)C)n5)(CC3)CC4)C(=O)C34CC(F)(C3)C4)c2)cc1` [Example 482, N-((4-(5-(tert-butyl)-1,2,4-oxadiazol-3-yl)bicyclo[2.2.2]octan-1-yl)methyl)-N-(5-(4-ethoxyphenyl)pyridin-3-yl)-3-fluorobicyclo[1.1.1]pentane-1-carboxamide] the EC50 was 322 nM. `COc1ncc(-c2cccc(N(CC34CCC(c5ccc(C(F)(F)F)cn5)(CC3)CC4)C(=O)C34CC(F)(C3)C4)c2)cn1` [Example 494, 3-fluoro-N-(3-(2-methoxypyrimidin-5-yl)phenyl)-N-((4-(5-(trifluoromethyl)pyridin-2-yl)bicyclo[2.2.2]octan-1-yl)methyl)bicyclo[1.1.1]pentane-1-carboxamide] showed an EC50 of 516 nM. Work on `CCOc1ncc(-c2cccc(N(CC34CCC(c5nc(C(C)(C)C)no5)(CC3)CC4)C(=O)C34CC(NC(=O)OC(C)(C)C)(C3)C4)c2)cn1` [Example 505, tert-butyl (3-(((4-(3-(tert-butyl)-1,2,4-oxadiazol-5-yl)bicyclo[2.2.2]octan-1-yl)methyl) (3-(2-ethoxypyrimidin-5-yl)phenyl)carbamoyl)bicyclo[1.1.1]pentan-1-yl)carbamate] yielded an EC50 of 621 nM.

Same assay, conditions: Gal4-hFXR fusion construct, HEK293 reporter cells; response relative to 8 μM GW-4064
Compound `CC(C)(OC(=O)N(CC12CCC(c3nc(C4CC4)no3)(CC1)CC2)c1nccc(C23CCC(C#N)(CC2)CC3)n1)C(F)(F)F` [Example 665, 1,1,1-trifluoro-2-methylpropan-2-yl (4-(4-cyanobicyclo[2.2.2]octan-1-yl)pyrimidin-2-yl)((4-(3-cyclopropyl-1,2,4-oxadiazol-5-yl)bicyclo[2.2.2]octan-1-yl)methyl)carbamate] has an EC50 of 2000 nM. With `O=C(N(CC12CCC(c3nc(C4CC4)no3)(CC1)CC2)c1cccc(-c2ncc(OC(F)F)cn2)c1)C12CC(F)(C1)C2` [Example 335, N-((4-(3-cyclopropyl-1,2,4-oxadiazol-5-yl)bicyclo[2.2.2]octan-1-yl)methyl)-N-(3-(5-(difluoromethoxy)pyrimidin-2-yl)phenyl)-3-fluorobicyclo[1.1.1]pentane-1-carboxamide] the EC50 was 26 nM. With `CCOc1ccc(-c2cccc(N(CC34CCC(c5nc(C6CC6)no5)(CC3)CC4)C(=O)C34CC(F)(C3)C4)c2)cn1` [Example 281, N-((4-(3-cyclopropyl-1,2,4-oxadiazol-5-yl)bicyclo[2.2.2]octan-1-yl)methyl)-N-(3-(6-ethoxypyridin-3-yl)phenyl)-3-fluorobicyclo[1.1.1]pentane-1-carboxamide] the EC50 was 66 nM. `O=C(N(CC12CCC(c3noc(C4(F)CC4)n3)(CC1)CC2)c1cccc(C2CC2)c1)C12CC(F)(C1)C2` [Example 573, N-(3-cyclopropylphenyl)-3-fluoro-N-((4-(5-(1-fluorocyclopropyl)-1,2,4-oxadiazol-3-yl)bicyclo[2.2.2]octan-1-yl)methyl)bicyclo[1.1.1]pentane-1-carboxamide] showed an EC50 of 44 nM. With `CC1(C(=O)N(CC23CCC(c4noc(C(C)(C)C)n4)(CC2)CC3)c2cccc(-c3ccc(OC(F)F)cc3)c2)COC1` [Example 515, N-((4-(5-(tert-butyl)-1,2,4-oxadiazol-3-yl)bicyclo[2.2.2]octan-1-yl)methyl)-N-(4′-(difluoromethoxy)-[1,1′-biphenyl]-3-yl)-3-methyloxetane-3-carboxamide] the EC50 was 357 nM. With `CC(C)(C)c1nc(C23CCC(CN(C(=O)C45CC(F)(C4)C5)c4cccc(-c5cnc(C(F)(F)F)nc5)c4)(CC2)CC3)no1` [Example 443, N-((4-(5-(tert-butyl)-1,2,4-oxadiazol-3-yl)bicyclo[2.2.2]octan-1-yl)methyl)-3-fluoro-N-(3-(2-(trifluoromethyl)pyrimidin-5-yl)phenyl)bicyclo[1.1.1]pentane-1-carboxamide] the EC50 was 357 nM. For `CC(C)(O)c1ccc(-c2cccc(N(C[C@]34CC[C@](c5noc(C(C)(C)F)n5)(CC3)CC4)C(=O)C3CC(O)(C(F)(F)F)C3)c2)cc1` (stereo partly drawn) [Example 576, (cis)-N-((4-(5-(2-fluoropropan-2-yl)-1,2,4-oxadiazol-3-yl)bicyclo[2.2.2]octan-1-yl)methyl)-3-hydroxy-N-(4′-(2-hydroxypropan-2-yl)-[1,1′-biphenyl]-3-yl)-3-(trifluoromethyl)cyclobutane-1-carboxamide], the EC50 was 19 nM. With `Cn1ncc2cc(-c3cccc(N(CC45CCC(c6nc(C7CC7)no6)(CC4)CC5)C(=O)C45CC(F)(C4)C5)c3)ccc21` [Example 304, N-((4-(3-cyclopropyl-1,2,4-oxadiazol-5-yl)bicyclo[2.2.2]octan-1-yl)methyl)-3-fluoro-N-(3-(1-methyl-1H-indazol-5-yl)phenyl)bicyclo[1.1.1]pentane-1-carboxamide] the EC50 was 248 nM. With `O=C(C1CC(O)(C(F)(F)F)C1)N(CC12CCC(NS(=O)(=O)C(F)(F)F)(CC1)CC2)c1cccc(-c2ccc(OC(F)F)cc2)c1` (stereo not drawn) [Example 603, (cis)-N-(4′-(difluoromethoxy)-[1,1′-biphenyl]-3-yl)-3-hydroxy-3-(trifluoromethyl)-N-((4-((trifluoromethyl)sulfonamido)bicyclo[2.2.2]octan-1-yl)methyl)cyclobutane-1-carboxamide] the EC50 was 1820 nM. `CC(C)c1noc(C23CCC(CN(C(=O)C45CC(F)(C4)C5)c4cccc(-c5ccc(OC(F)F)cc5)c4)(CC2)CC3)n1` [Example 387, N-(4′-(difluoromethoxy)-[1,1′-biphenyl]-3-yl)-3-fluoro-N-((4-(3-isopropyl-1,2,4-oxadiazol-5-yl)bicyclo[2.2.2]octan-1-yl)methyl)bicyclo[1.1.1]pentane-1-carboxamide] showed an EC50 of 47 nM. `O=C(N(CC12CCC(c3nc(C4CC4)no3)(CC1)CC2)c1cccc(-c2cccn3ccnc23)c1)C12CC(F)(C1)C2` [Example 330, N-((4-(3-cyclopropyl-1,2,4-oxadiazol-5-yl)bicyclo[2.2.2]octan-1-yl)methyl)-3-fluoro-N-(3-(imidazo[1,2-a]pyridin-8-yl)phenyl)bicyclo[1.1.1]pentane-1-carboxamide] showed an EC50 of 392 nM. Work on `CC(C)(C)c1nc(C23CCC(CN(C(=O)C45CC(F)(C4)C5)c4cccc(-c5ncc(OC(F)F)cn5)c4)(CC2)CC3)no1` [Example 452, N-((4-(5-(tert-butyl)-1,2,4-oxadiazol-3-yl)bicyclo[2.2.2]octan-1-yl)methyl)-N-(3-(5-(difluoromethoxy)pyrimidin-2-yl)phenyl)-3-fluorobicyclo[1.1.1]pentane-1-carboxamide] yielded an EC50 of 17 nM. `Cc1nc2ccc(-c3cccc(N(CC45CCC(c6cc(C7CC7)nn6C)(CC4)CC5)C(=O)C45CC(F)(C4)C5)c3)cc2s1` [Example 415, N-((4-(3-cyclopropyl-1-methyl-1H-pyrazol-5-yl)bicyclo[2.2.2]octan-1-yl)methyl)-3-fluoro-N-(3-(2-methylbenzo[d]thiazol-6-yl)phenyl)bicyclo[1.1.1]pentane-1-carb oxamide] gave an EC50 of 125 nM. Compound `COc1cc(-c2cccc(N(CC34CCC(c5ccnc(C)c5)(CC3)CC4)C(=O)C3CC(F)(F)C3)c2)ccn1` [Example 237, 3,3-Difluoro-N-(3-(2-methoxypyridin-4-yl)phenyl)-N-((4-(2-methylpyridin-4-yl)bicyclo[2.2.2]octan-1-yl)methyl)cyclobutane-1-carboxamide] has an EC50 of 541 nM. `CC(C)(O)c1ccc(-c2cc(N(CC34CCC(c5noc(C(C)(C)F)n5)(CC3)CC4)C(=O)OC(C)(C)C(F)(F)F)ncc2F)cc1` [Example 620, 1,1,1-trifluoro-2-methylpropan-2-yl(5-fluoro-4-(4-(2-hydroxypropan-2-yl)phenyl)pyridin-2-yl)((4-(5-(2-fluoropropan-2-yl)-1,2,4-oxadiazol-3-yl)bicyclo[2.2.2]octan-1-yl)methyl) carbamate] showed an EC50 of 29 nM. In the case of `CC(C)(C)c1noc(C23CCC(CN(C(=O)C45CC(F)(C4)C5)c4cccc(-c5ccc(NS(=O)(=O)C(F)(F)F)cc5)c4)(CC2)CC3)n1` [Example 372, N-((4-(3-(tert-butyl)-1,2,4-oxadiazol-5-yl)bicyclo[2.2.2]octan-1-yl)methyl)-3-fluoro-N-(4′-((trifluoromethyl)sulfonamido)-[1,1′-biphenyl]-3-yl)bicyclo[1.1.1]pentane-1-carboxamide], the EC50 is reported as 131 nM. `CCOc1ccc(-c2cccc(N(CC34CCC(c5noc(C(C)(F)F)n5)(CC3)CC4)C(=O)C34CC(F)(C3)C4)c2)cc1` [Example 527, N-((4-(5-(1,1-difluoroethyl)-1,2,4-oxadiazol-3-yl)bicyclo[2.2.2]octan-1-yl)methyl)-N-(4′-ethoxy-[1,1′-biphenyl]-3-yl)-3-fluorobicyclo[1.1.1]pentane-1-carboxamide] showed an EC50 of 103 nM. `CC(C)(C)c1nc(C23CCC(CN(C(=O)C45CC(F)(C4)C5)c4cccc(-c5ccc(OC(F)F)cn5)c4)(CC2)CC3)no1` [Example 455, N-((4-(5-(tert-butyl)-1,2,4-oxadiazol-3-yl)bicyclo[2.2.2]octan-1-yl)methyl)-N-(3-(5-(difluoromethoxy)pyridin-2-yl)phenyl)-3-fluorobicyclo[1.1.1]pentane-1-carboxamide] gave an EC50 of 17 nM. `CC(C)(F)c1nc(C23CCC(CN(C(=O)OC(C)(C)C(F)(F)F)c4cc(-c5cnn(CC6COC6)c5)c(F)cn4)(CC2)CC3)no1` [Example 621, 1,1,1-trifluoro-2-methylpropan-2-yl(5-fluoro-4-(1-(oxetan-3-ylmethyl)-1H-pyrazol-4-yl)pyridin-2-yl)((4-(5-(2-fluoropropan-2-yl)-1,2,4-oxadiazol-3-yl)bicyclo[2.2.2]octan-1-yl)methyl)carbamate] was tested, and the EC50 was 84 nM.
